# In paper PMC12562324, “Surfactin Structural Variants Differentially Modulate Plant Immune Responses” (Biomolecules, 2025):
# Key:
# [1] = system: protoplasts isolated from roots of Arabidopsis thaliana Col-0; assay: [ROS]intra burst in root protoplasts, DCFH-DA; assay type: cell-based; conditions: 10 µM, fold increase in fluorescence at 5 min; n = 12 from three independent experiments; Figure 2D
# Protocol: Two-week-old Arabidopsis thaliana seedling roots (from 27 mg seeds) were collected and were cut into 1–2 mm segments and incubated in a protoplasting solution (20 mM MES pH 5.7, 0.4 M mannitol, 20 mM KCl, 10 mM CaCl2, 0.1% (w/v) BSA, 1.5% (w/v) cellulase R10 (Duchefa Biochemie, Haarlem, The Netherlands), 0.4% (w/v) macerozyme R10 (Duchefa Chimie)) for 3 h at room temperature and in the dark. After incubation, 1 mL of solution A (154 mM NaCl, 5 mM KCl, 125 mM CaCl2, 4 mM MES, pH = 5.7) was added inside. The suspension was agitated gently and filtered by a 70 µm pore filter to remove extra root debris. Filtered suspension was centrifuged at 850 g for 6 min at room temperature, and the pelleted protoplasts were rinsed three times with solution B (4 mM MES pH 5.7, 154 mM NaCl, 125 mM CaCl2, 5 mM KCl) before being resuspended in solution C (2 mM MES pH 5.7, 0.5 M mannitol, 20 mM KCl, 2 mM CaCl2) at a working concentration of 1–2 × 10^5 cells per mL. For [ROS]intra measurements in protoplasts, protoplasts isolated from roots of Arabidopsis thaliana Col-0 plants were incubated for 10 min with 5 µM of DCFH-DA. Then, wells of black 96-well microplates (96 Flat Black-Greiner Bio-One^TM CellStar^TM, Fischer Scientific) were loaded with 150 µL of protoplasts solution per well. After the addition of 50 µL of four-times-concentrated treatment, the fluorescence was recorded every minute using a microplate reader with an excitation filter at 485 ± 20 nm and emission filter at 535 ± 25 nm. The data were processed as for the roots.
# [2] = system: Arabidopsis thaliana Col-0 root protoplasts; assay: Calcium influx ([Ca2+]cyt) in root protoplasts, Fluo-4 AM probe; assay type: cell-based; conditions: 10 µM, Fluo-4 normalized fluorescence (F/F0), within first 30 min; n = 6; Figure 4A,B
# Protocol: Two-week-old Arabidopsis thaliana seedling roots (from 27 mg seeds) were collected and were cut into 1–2 mm segments and incubated in a protoplasting solution (20 mM MES pH 5.7, 0.4 M mannitol, 20 mM KCl, 10 mM CaCl2, 0.1% (w/v) BSA, 1.5% (w/v) cellulase R10 (Duchefa Biochemie, Haarlem, The Netherlands), 0.4% (w/v) macerozyme R10 (Duchefa Chimie)) for 3 h at room temperature and in the dark. After incubation, 1 mL of solution A (154 mM NaCl, 5 mM KCl, 125 mM CaCl2, 4 mM MES, pH = 5.7) was added inside. The suspension was agitated gently and filtered by a 70 µm pore filter to remove extra root debris. Filtered suspension was centrifuged at 850 g for 6 min at room temperature, and the pelleted protoplasts were rinsed three times with solution B (4 mM MES pH 5.7, 154 mM NaCl, 125 mM CaCl2, 5 mM KCl) before being resuspended in solution C (2 mM MES pH 5.7, 0.5 M mannitol, 20 mM KCl, 2 mM CaCl2) at a working concentration of 1–2 × 10^5 cells per mL. Calcium measurements were also performed on protoplasts with the Fluo-4 AM probe. Protoplasts isolated from roots of Arabidopsis thaliana Col-0 were incubated for 1 h with 5 µM of Fluo-4 AM (Thermo Fisher Scientific, Hampton, VA, USA) (from a 5 mM stock solution in DMSO). The suspension was then centrifuged at 750 g, and the supernatant was discarded to eliminate the remaining free fluo-4 AM. The protoplasts were resuspended in fresh solution C and were incubated for 1 h. Microplates (96 Flat Black-Greiner Bio-One^TM CellStar^TM, Fischer Scientific) were loaded with 150 µL of protoplast solution per well. After the addition of 50 µL of 4-times-concentrated treatment, the fluorescence was recorded every 15 s using a Spark® microplate reader (Tecan, Männedorf, Switzerland) with an excitation filter at 485 ± 20 nm and an emission filter at 535 ± 25 nm. The values obtained were then converted as normalized fluorescence increase (F/F0) by dividing the fluorescence measured at each time point (F) by the fluorescence measured at the first time point (F0).
# [3] = system: Botrytis cinerea; assay: Induced systemic resistance (ISR) against B. cinerea leaf infection after root treatment; assay type: in vivo; conditions: Arabidopsis thaliana Col-0, hydroponic, 10 µM at roots 24 h before leaf infection, scored 4 dpi vs mock (0.1% EtOH); n = 30 from two independent experiments; Figure 5
# Protocol: Plants were grown for 4 weeks in hydroponic conditions in Araponics systems containing a nutrient solution (0.25% (v/v) FLORAMICRO®, 0.25% (v/v) FLORABLOOM®, 0.25% (v/v) FLORAGRO®; General Hydroponics®, in volume ratio 1:1:1, as recommended by the manufacturer), with a photoperiod of 12 h and a temperature of 22 °C. Plants were then transferred into 10 mL vials filled with fresh nutrient solution and treated at the root level with CLPs or ethanol (mock treatment) to obtain final concentrations of 10 µM and 0.1%, respectively. After incubation for 24 h, plants were inoculated with Botrytis cinerea (Helotiales: Sclerotiniaceae) as the conidia solution. Spores were collected from B. cinerea grown on PDA plates for 4 weeks using a solution composed of 1.75 g/L KH2PO4; 0.74 g/L MgSO4; 4 g/L glucose, and 0.02% (v/v) Tween 20. After spore collection, the concentration was adjusted to 5 × 10^5 spores per mL, and spores were incubated at 30 °C for eight hours. Inoculation was conducted by inoculating a drop of 3 µL of conidia solution onto seven leaves per plant and fifteen plants per treatment. The number of spreading lesions was evaluated 96 h post infection.
Substance,[ROS]intra burst in root protoplasts vs mock [1],[Ca2+]cyt increase in root protoplasts [2],Leaf infection by B. cinerea (disease level) after root treatment [3]
lichenysin,significant boosting activity,fast increase in [Ca^2+]cyt,significantly reduced leaf infection
pumilacidin,not active,not significant,no disease reduction
surfactin [Srf],significant boosting activity,fast increase in [Ca^2+]cyt,significantly reduced leaf infection
